{"source": "patent US9815863B2", "about": "“Hydrogen bond forming fluoro ketolides for treating diseases” (priority 2010, dated 2017)", "key": {"[1]": {"tested_on": "bacterial protein synthesis (E. coli S30 extract)", "test": "E. coli cell-free transcription-translation (TnT) S30 system, firefly luciferase synthesis", "details": "read-out: IC50 of inhibition of firefly luciferase synthesis, ribosomes 600 nM"}, "[2]": {"tested_on": "Streptococcus pneumoniae Pen^R, Tel^1/^R, Mac^R", "test": "MIC against streptococci clinical isolates (Table 3)", "format": "cell-based", "details": "Streptococcus pneumoniae, S. pneumoniae Pen^R, 12 strains, constitutive ermB"}, "S. aureus 70S ribosomes": {"target": "S. aureus 70S ribosomes", "test": "Saturation (direct) binding of radiolabeled drug to S. aureus wild-type ribosomes, spin-column", "description": "Ribosomes were prepared from E. coli, strain MRE 600, S. aureus strain ATCC 29212, or S. aureus strain N315 by standard protocols (Spedding™, G. 1990. Isolation and analysis of ribosomes from prokaryotes, eukaryotes, and organelles, p. 1-29. In G. Spedding (ed.), Ribosomes and protein synthesis, a practical approach. Oxford University Press, Oxford, United Kingdom; Adams, P. D., P. V. Afonine, G. Bunkoczi, V. B. Chen, I. W. Davis, N. Echols, J. J. Headd, L. W. Hung, G. J. Kapral, R. W. Grosse-Kunstleve, A. J. McCoy, N. W. Moriarty, R. Oeffner, R. J. Read, D. C. Richardson, J. S. Richardson, T. C. Terwilliger, and P. H. Zwart. 2010. PHENIX: a comprehensive Python-based system for macromolecular structure solution. Acta Crystallogr. D. Biol. Crystallogr. 66:213-221).\nCompetition binding studies. […]\nDirect antibiotic binding experiments were done by incubating ribosomes at a 100 nM concentration with varying concentrations of radiolabeled drug in a total volume of 160 μL in buffer A (20 mM Tris-HCl [pH 7.5], 10 mM MgCl2, 150 mM NH4Cl, 6 mM 2-mercaptoethanol) at 37° C. for 15 min, then at 20° C. for 10 min. […] Radioactivity was measured in a scintillation counter and used to calculate the amount of the radiolabeled drug bound to ribosomes."}, "[3]": {"tested_on": "E. coli ribosomes (23S rRNA)", "test": "RNA footprinting (ribosome chemical probing), wild-type E. coli ribosomes", "format": "binding", "details": "100 μM antibiotic", "description": "(§1) Ribosome chemical probing. rRNA probing was done following standard protocols (Merryman, C., and H. F. Noller. 1998. Footprinting and modification-interference analysis of binding sites on RNA, p. 237-253. In C. W. J. Smith (ed.), RNA:Protein Interactions, A Practical Approach. Oxford University Press, Oxford), with minor modifications. Briefly, 200 nM ribosomes were incubated with 100 μM antibiotic in 50 μL of buffer B (80 mM HEPES-KOH [pH 7.8], 20 mM MgCl2, 100 mM NH4Cl, 1.5 mM dithiothreitol) for 10 min at 37° C., followed by 10 min at 20° C. Modifying reagents (dimethyl sulfate [DMS], kethoxal, or 1-cyclohexyl-3-(2-morpholinoethyl)carbodiimide metho p-toluene sulfonate [CMCT]) were added and the modification reaction was carried out for 10 min at 37° C. After quenching the reaction and ethanol precipitation, rRNA was extracted and the distribution of modified nucleotides was assessed by primer extension.\n(§2) Interactions of CEM-101 with wild-type E. coli and S. aureus ribosomes in solution. […] 1987. Chloramphenicol, erythromycin, carbomycin and vernamycin B protect overlapping sites in the peptidyl transferase region of 23S ribosomal RNA. Biochimie 69:879-884). Also included in this study was a C3-cladinose cousin of CEM-101, CEM-103, which lacks the C2-linked fluorine atom."}, "[4]": {"tested_on": "Streptococcus pyogenes Tel^R, Mac^R", "test": "MIC against streptococci clinical isolates (Table 3)", "format": "cell-based", "details": "Streptococcus pyogenes"}, "E. coli ribosome": {"tested_on": "E. coli ribosome", "test": "Competition binding with [14C]erythromycin, E. coli ribosome", "description": "Competition binding studies. Binding of erythromycin to E. coli and S. aureus ribosomes and competition experiments were done by size-exclusion chromatography using Bio-Gel P30 spin columns as described in Xiong, L., Y. Korkhin, and A. S. Mankin. 2005. Binding site of the bridged macrolides in the Escherichia coli ribosome. Antimicrob. Agents Chemother. 49:281-288.\nFor competition binding experiments, ribosomes (100 nM) were preincubated with 100 nM [^14C]erythromycin (48.8 mCi/mmol; PerkinElmer) in 160 μL of buffer A at 37° C. for 15 min, then at 20° C. for 10 min. Competing antibiotics were added at varying concentrations, and the binding mixture was incubated at 20° C. for 100 min. The reactions were loaded onto the spin columns and the amount of ribosome-associated radioactivity was measured as described above. Binding data were analyzed using Prism software (GraphPad). Cell free transcription-translation assays."}, "[5]": {"tested_on": "S. aureus ribosomes (23S rRNA)", "test": "RNA footprinting (ribosome chemical probing), wild-type S. aureus ribosomes", "format": "binding", "details": "100 μM antibiotic", "description": "as §1, §2"}}}
{"smiles": "CC[C@H]1OC(=O)[C@@](C)(F)C(=O)[C@H](C)[C@@H](O[C@@H]2O[C@H](C)C[C@H](N(C)C)[C@H]2O)[C@](C)(OC)C[C@@H](C)C(=O)[C@H](C)[C@H]2N(CCCCn3cc(-c4cccc(N)c4)nn3)C(=O)O[C@]12C", "note": "[CEM-101]", "values": [{"measurement": "IC50", "setting": "[1]", "value": 1100, "unit": "nM"}, {"measurement": "MIC50", "setting": "[2]; read-out: MIC50", "value": 0.5, "unit": "µg/mL"}, {"measurement": "MIC90", "setting": "[2]; read-out: MIC90", "value": 0.5, "unit": "µg/mL"}, {"measurement": "Kd", "setting": "S. aureus 70S ribosomes", "value": "50 ± 13", "unit": "nM"}, {"measurement": "Protection of A752 from DMS modification", "setting": "[3]; E. coli ribosomes", "value": "strongly protects"}, {"measurement": "Protection of A2058 and A2059 in domain V of 23S rRNA from modification with DMS", "setting": "[3]; E. coli wild-type ribosomes", "value": "protect"}, {"measurement": "MIC50", "setting": "[4]", "value": 0.125, "unit": "µg/mL"}, {"measurement": "MIC90", "setting": "[4]; S. pyogenes Tel^R, Mac^R, 9 strains (8 ermB, 1 ermA, constitutive), read-out: MIC90", "value": 0.25, "unit": "µg/mL"}, {"measurement": "Kd", "setting": "E. coli ribosome; E. coli ribosome, resulting from competition IC50", "value": "62 ± 3", "unit": "nM"}, {"measurement": "IC50", "setting": "E. coli ribosome; competition with 100 nM [14C]erythromycin, 100 nM E. coli ribosomes, read-out: IC50 of displacement of erythromycin", "value": "155 ± 8", "unit": "nM"}, {"measurement": "Protection of A752 from DMS modification", "setting": "[5]; S. aureus ribosomes", "value": "strongly protects"}, {"measurement": "Protection of A2058 and A2059 in domain V of 23S rRNA from modification with DMS", "setting": "[5]; S. aureus wild-type ribosomes", "value": "protect"}]}
